Experimental data from the supplement of paper PMC10307832.

How the values were obtained:
Test in all cases: relative viability (nuclei count vs DMSO), 5 days (fraction); higher = more cells survive
[1] = compound: Cc1ccc(C(=O)Nc2cccc(C(F)(F)F)c2)cc1Nc1cncc(C(N)=O)c1 [ALW-II-49-7] + CC(=O)Nc1cccc(-n2c(=O)n(C3CC3)c(=O)c3c(Nc4ccc(I)cc4F)n(C)c(=O)c(C)c32)c1 [Trametinib] (partner 0.02 µM)
Method in brief: (§1)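 For relative viability, nuclei counts in treated wells were divided by those in vehicle wells. Lung cancer cell lines had been pin-tool dosed in 1536-well plates the day after seeding and cultured for 5 days, then fixed and stained in one step (final 0.05% Triton X-100, 1% formaldehyde, 1 ug/ml Hoechst) and imaged at 4×. Doses were one drug alone or a fixed anchor-drug dose plus five library-drug doses (not always all listed) in √10 steps, and values are duplicate-plate medians.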

[2] = compound: Cc1ccc(C(=O)Nc2cccc(C(F)(F)F)c2)cc1Nc1cncc(C(N)=O)c1 [ALW-II-49-7] + COc1cccc2cc(-c3nc([C@H]4CC[C@H](C(=O)O)CC4)n4ncnc(N)c34)[nH]c12 [OSI-027] (partner 0.5 µM)
Method in brief: as §1

[3] = compound: Cc1nc(Nc2ncc(C(=O)Nc3c(C)cccc3Cl)s2)cc(N2CCN(CCO)CC2)n1 [Dasatinib] + N=C(N)NC(=N)NCCc1ccccc1 [Phenformin] (partner 250 µM)
Method in brief: as §1

[4] = compound: Cc1nc(Nc2ncc(C(=O)Nc3c(C)cccc3Cl)s2)cc(N2CCN(CCO)CC2)n1 [Dasatinib] + O=C(c1cc(Cc2n[nH]c(=O)c3ccccc23)ccc1F)N1CCN(C(=O)C2CC2)CC1 [Olaparib] (partner 8 µM)
Method in brief: as §1

Cell Line	relative viability ([1]; first compound 0.08 µM)	relative viability ([1]; first compound 0.253 µM)	relative viability ([1]; first compound 0.8 µM)	relative viability ([1]; first compound 2.53 µM)	relative viability ([1]; first compound 8 µM)	relative viability ([2]; first compound 0.08 µM)	relative viability ([2]; first compound 0.253 µM)	relative viability ([2]; first compound 0.8 µM)	relative viability ([2]; first compound 2.53 µM)	relative viability ([2]; first compound 8 µM)	relative viability ([3]; first compound 0.005 µM)	relative viability ([3]; first compound 0.01581 µM)	relative viability ([3]; first compound 0.05 µM)	relative viability ([3]; first compound 0.1581 µM)	relative viability ([3]; first compound 0.5 µM)	relative viability ([4]; first compound 0.005 µM)	relative viability ([4]; first compound 0.01581 µM)	relative viability ([4]; first compound 0.05 µM)	relative viability ([4]; first compound 0.1581 µM)	relative viability ([4]; first compound 0.5 µM)
201T	0.718	0.791	0.691	0.715	0.777	0.68	0.841	0.462	0.493	0.684	0.446	0.33	0.338	0.341	0.221	0.783	0.753	0.707	0.636	0.445
A549	–	–	–	–	–	–	–	–	–	–	0.207	0.165	0.175	0.137	0.0717	0.312	0.306	0.269	0.308	0.116
A-427	0.733	0.777	0.761	0.691	0.585	0.412	0.484	0.472	0.444	0.473	0.326	0.262	0.277	0.266	0.225	0.704	0.646	0.637	0.574	0.563
ABC-1	–	–	–	–	–	0.404	0.423	0.481	0.494	0.379	0.22	0.256	0.245	0.221	0.238	0.867	0.767	0.786	0.621	0.841
BEN	1.08	1.03	1.05	0.578	1.02	0.548	0.317	0.294	0.288	0.403	0.249	0.213	0.249	0.241	0.206	0.755	0.641	0.724	0.549	0.456
CAL-12T	0.294	0.336	0.346	0.307	0.288	0.734	0.745	0.612	0.759	0.503	0.574	0.554	0.411	0.273	0.174	0.689	0.688	0.877	0.755	0.575
COR-L23	0.576	0.514	0.648	0.566	0.43	0.556	0.709	0.828	0.715	0.677	0.431	0.348	0.384	0.374	0.321	0.338	0.294	0.325	0.208	0.211
COR-L 105	0.443	0.401	0.43	0.453	0.396	0.644	0.719	0.66	0.644	0.753	0.441	0.378	0.312	0.278	0.16	0.517	0.494	0.617	0.452	0.336
Calu-6	–	–	–	–	–	–	–	–	–	–	–	–	–	–	–	0.57	0.434	0.449	0.357	0.34
ChaGo-K-1	0.889	0.939	0.919	0.847	0.85	0.472	0.622	0.616	0.496	0.429	0.546	0.463	0.41	0.442	0.377	0.424	0.404	0.426	0.393	0.325
EBC-1	–	–	–	–	–	–	–	–	–	–	–	–	–	–	–	0.803	0.619	0.612	0.613	0.602
EKVX	0.266	0.347	0.482	0.317	0.298	0.579	0.773	0.578	0.653	0.679	0.218	0.21	0.177	0.136	0.102	0.852	0.669	0.676	0.338	0.189
EMC-BAC-2	0.966	0.92	0.998	0.857	0.755	0.351	0.39	0.336	0.296	0.305	0.476	0.326	0.429	0.224	0.172	0.462	0.404	0.447	0.355	0.301
EPLC-272H	0.245	0.27	0.281	0.305	0.239	0.277	–	0.278	0.293	0.265	0.313	0.252	0.386	0.261	0.0761	0.793	0.681	0.697	0.33	0.208
H3255	0.856	0.52	0.681	0.62	0.455	0.556	0.58	0.559	0.483	0.388	0.312	0.344	0.341	0.322	0.274	0.551	0.604	0.563	0.476	0.341
